Patent US6620828B2, “Thiazole compounds and pharmaceutical compositions for inhibiting protein kinases and methods for their use” (Agouron Pharmaceuticals, Inc., priority 1999, dated 2003)

System: human umbilical vein endothelial cells (HUVEC)
Assay: HUVEC proliferation assay
Format: cell-based
Settings: Homo sapiens, HUVEC, crude combinatorial urea library; for inhibition at 0.01 µM: 10 nM, read-out: Inhibition of HUVEC Proliferation % inhibition @ 10 nM; for inhibition at 0.05 µM: 50 nM, read-out: Inhibition of HUVEC Proliferation % inhibition @ 50 nM
Procedure: HUVEC Proliferation Assay
This assay determines the ability of a test compound to inhibit the growth factor-stimulated proliferation of human umbilical vein endothelial cells (“HUVEC”). HUVEC cells (passage 3-4, Clonetics, Corp.) were thawed into EGM2 culture medium (Clonetics Corp) in T75 flasks. Fresh EGM2 medium was added to the flasks 24 hours later. Four or five days later, cells were exposed to another culture medium (F12K medium supplemented with 10% fetal bovine serum (FBS), 60 μg/ml endothelial cell growth supplement (ECGS), and 0.1 mg/ml heparin). Exponentially-growing HUVEC cells were used in experiments thereafter. Ten to twelve thousand HUVEC cells were plated in 96-well dishes in 100 μl of rich, culture medium (described above). The cells were allowed to attach for 24 hours in this medium. The medium was then removed by aspiration and 105 μl of starvation media (F12K+1% FBS) was added to each well. After 24 hours, 15 μl of test agent dissolved in 1% DMSO in starvation medium or this vehicle alone was added into each treatment well; the final DMSO concentration was 0.1%. One hour later, 30 μl of VEGF (30 ng/ml) in starvation media was added to all wells except those containing untreated controls; the final VEGF concentration was 6 ng/ml. Cellular proliferation was quantified 72 hours later by MTT dye reduction, at which time cells were exposed for 4 hours MTT (Promega Corp.). Dye reduction was stopped by addition of a stop solution (Promega Corp.) and absorbance at 595 λ was determined on a 96-well spectrophotometer plate reader.
IC50 values were calculated by curve-fitting the response of A^595 to various concentrations of the test agent; typically, seven concentrations separated by 0.5 log were employed, with triplicate wells at each concentration. For screening compound library plates, one or two concentrations (one well per concentration) were employed, and the % inhibition was calculated by the following formula:
% inhibition=(control−test) divided by (control−starvation) […]
control=A^595 when VEGF is present without test agent test=A^595 when VEGF is present with test agent starvation=A^595 when VEGF and test agent are both absent.

SMILES	inhibition at 0.01 µM	inhibition at 0.05 µM
COc1cccc(C(=O)Nc2cccc(-c3csc(-c4sc(NC(=O)NC5CC(C)(C)NC(C)(C)C5)nc4N)n3)c2)c1	-13%	29%
COc1cccc(C(=O)Nc2cccc(-c3csc(-c4sc(NC(=O)NCCc5ccc(N)cc5)nc4N)n3)c2)c1	-3%	3%
COc1cccc(C(=O)Nc2cccc(-c3csc(-c4sc(NC(=O)NCCCN5CCOCC5)nc4N)n3)c2)c1	19%	83%
COc1cccc(C(=O)Nc2cccc(-c3csc(-c4sc(NC(=O)NCCC(C)C)nc4N)n3)c2)c1	25%	18%
COc1cccc(C(=O)Nc2cccc(-c3csc(-c4sc(NC(=O)NCC5CCCO5)nc4N)n3)c2)c1 (centres unmarked)	46%	87%
COc1cccc(C(=O)Nc2cccc(-c3csc(-c4sc(NC(=O)NCCCN5CCCC5=O)nc4N)n3)c2)c1	28%	123%
COc1cccc(C(=O)Nc2cccc(-c3csc(-c4sc(NC(=O)NCCC5CCCN5C)nc4N)n3)c2)c1 (centres unmarked)	39%	0%
COc1cccc(C(=O)Nc2cccc(-c3csc(-c4sc(NCCC(=O)NCC(=O)O)nc4N)n3)c2)c1	-34%	7%
COc1cccc(C(=O)Nc2cccc(-c3csc(-c4sc(NC(=O)NCC#N)nc4N)n3)c2)c1	-3%	3%
COc1cccc(C(=O)Nc2cccc(-c3csc(-c4sc(NC(=O)NCC(=O)NO)nc4N)n3)c2)c1	-1%	37%
COc1cccc(C(=O)Nc2cccc(-c3csc(-c4sc(NC(=O)NCC(=O)O)nc4N)n3)c2)c1	42%	52%
COc1cccc(C(=O)Nc2cccc(-c3csc(-c4sc(NC(=O)NCCS(=O)(=O)O)nc4N)n3)c2)c1	45%	46%
CCC(O)CNC(=O)Nc1nc(N)c(-c2nc(-c3cccc(NC(=O)c4cccc(OC)c4)c3)cs2)s1 (centres unmarked)	30%	135%
COc1cccc(C(=O)Nc2cccc(-c3csc(-c4sc(NC(=O)NCC(C)(C)CO)nc4N)n3)c2)c1	7%	88%
CCN1CC(NC(=O)Nc2nc(N)c(-c3nc(-c4cccc(NC(=O)c5cccc(OC)c5)c4)cs3)s2)CN1CC	-24%	45%
CCN(CCNC(=O)Nc1nc(N)c(-c2nc(-c3cccc(NC(=O)c4cccc(OC)c4)c3)cs2)s1)c1cccc(C)c1	-10%	125%
COc1cccc(C(=O)Nc2cccc(-c3csc(-c4sc(NC(=O)NCC(=N)N)nc4N)n3)c2)c1	27%	46%
COc1cccc(C(=O)Nc2cccc(-c3csc(-c4sc(NC(=O)NCC(C)(C)C)nc4N)n3)c2)c1	44%	34%
COc1cccc(C(=O)Nc2cccc(-c3csc(-c4sc(NC(=O)NCC5(O)CCCCC5)nc4N)n3)c2)c1	4%	2%
COc1cccc(C(=O)Nc2cccc(-c3csc(-c4sc(NC(=O)NCCc5c[nH]cn5)nc4N)n3)c2)c1	1%	-43%
COc1cccc(C(=O)Nc2cccc(-c3csc(-c4sc(NC(=O)NCS(=O)(=O)O)nc4N)n3)c2)c1	-8%	8%
COc1cccc(C(=O)Nc2cccc(-c3csc(-c4sc(NC(=O)NCCCN(C)c5ccccc5)nc4N)n3)c2)c1	17%	98%
COc1cccc(C(=O)Nc2cccc(-c3csc(-c4sc(NC(=O)NCc5ccc(S(N)(=O)=O)cc5)nc4N)n3)c2)c1	26%	36%
COc1cccc(C(=O)Nc2cccc(-c3csc(-c4sc(NC(=O)NCCCN(CCO)CCO)nc4N)n3)c2)c1	2%	65%
COc1cccc(C(=O)Nc2cccc(-c3csc(-c4sc(NC(=O)NCCc5ccncc5)nc4N)n3)c2)c1	-5%	97%
